Laboratory results as given in article PMC11397024, “Strategic Fluorination to Achieve a Potent, Selective, Metabolically Stable, and Orally Bioavailable Inhibitor of CSNK2” (Molecules, 2024).

Assays:
Assay in all cases: NanoBRET K192
Type in all cases: cell-based
[1] = target: T1, EPHA7 (Homo sapiens, UniProt Q15375); conditions: HEK293
T1 construct: host or cells: HEK293
Protocol: (§1) The K192 selectivity assay was run according to the Draft Promega technical manual, NanoBRET^TM Target Engagement K192 Kinase Selectivity System. Reagents were supplied by Promega (Promega NP 4101). For the assay, DNA from the prepared kinase vector panel plates A and B were mixed with Fugene in 96-well plates (Corning 3917) and incubated at room temperature for 30 min. The NanoLuc® Low control vector pNL1.1.CMV [Nluc/CMV] Vector (Cat.# N1091) and the transfection control vector NanoLuc®-HIPK2 Fusion Vector (Cat.# NV3221) were used as controls.
(§2) HEK293 cells were grown to 75–95% confluency in DMEM (Gibco 11995-065) supplemented with FBS (Avantor 97068-085) at 37 °C in […]. On the first day of the assay, cells were harvested and resuspended in Opti-MEM (Gibco 11058-021) supplemented with 1% FBS (Avantor 97068-085) at 2.5 × 10^5 cells per mL. A volume of 60 μL of cell suspension was mixed with 10 μL of prepared DNA (10X concentration) and 30 μL of Fugene (30 μL/mL in Opti-MEM) as outlined by Promega and incubated overnight at 37 °C in a 5% CO2 incubator.
(§3) On day two of the assay, 5 μL of 20X K10 tracer was prepared and added at concentrations recommended by Promega. Then, 10 μL of test compounds at 100 μM in Opti-MEM (diluted from a 10 mM solution in DMSO) was added to the test wells while an equivalent volume of Opti-MEM was added to the high-control wells. Plates were kept at 37 °C in a 5% CO2 incubator for two hours. After two hours, plates were allowed to equilibrate to room temperature for 15 min. A solution of 3X Complete Substrate plus Inhibitor Solution was freshly prepared, consisting of a 1:166 dilution of NanoBRET™ Nano-Glo® Substrate plus a 1:500 dilution of Extracellular NanoLuc® Inhibitor in Opti-MEM® medium without serum or phenol red. A 50 μL volume of the 3X Complete Substrate plus Inhibitor Solution was added to each assay well, including control wells. After 2–3 min, the plate was shaken at 300 RPM for 10 s, and the donor emission wavelength (450 nm) and acceptor emission wavelength (610 nm) were measured using the Glomax® Discover System.
(§4) As a quality check, the donor signal-to-background ratio was calculated for each individual kinase by dividing the mean donor signal for each kinase by the mean donor signal for the signal-to-background control wells. Fractional occupancy of the test drug for each kinase was determined using the following formula:Occupancy (%) = [1 − (Sample − Bottom)/(Top − Bottom)] × 100 where

[2] = target: T2, HIPK3 (Homo sapiens, UniProt Q9H422); conditions: HEK293
T2 construct: purchased Promega (NanoBRET Target Engagement K192 Kinase Selectivity System)
Protocol: as §1, §2, §3, §4

[3] = target: T3, CLK4 (Homo sapiens, UniProt Q9HAZ1)
T3 construct: expressed in transfected cells; host or cells: HEK293
Protocol: as §1, §2, §3, §4

[4] = target: T4, BRSK2 (Homo sapiens, UniProt Q8IWQ3); conditions: HEK293
T4 construct: purchased Promega (NanoBRET Target Engagement K192 Kinase Selectivity System)
Protocol: as §1, §2, §3, §4

[5] = target: T5, SRMS (Homo sapiens, UniProt Q9H3Y6); conditions: HEK293
T5 construct: purchased Promega (NanoBRET Target Engagement K192 Kinase Selectivity System)
Protocol: as §1, §2, §3, §4

[6] = target: T6, LIMK1 (Homo sapiens, UniProt P53667); conditions: HEK293
T6 construct: purchased Promega (NanoBRET Target Engagement K192 Kinase Selectivity System)
Protocol: as §1, §2, §3, §4

[7] = target: T7, ULK3v1 (Homo sapiens, UniProt Q6PHR2); conditions: HEK293
T7 construct: host or cells: HEK293
Protocol: as §1, §2, §3, §4

[8] = target: T8, NEK5 (Homo sapiens, UniProt Q6P3R8); conditions: HEK293
T8 construct: purchased Promega (NanoBRET Target Engagement K192 Kinase Selectivity System)
Protocol: as §1, §2, §3, §4

[9] = target: T9, SBK3 (Homo sapiens, UniProt P0C264); conditions: HEK293
T9 construct: purchased Promega (NanoBRET Target Engagement K192 Kinase Selectivity System)
Protocol: as §1, §2, §3, §4

[10] = target: T10, FGFR3 (Homo sapiens, UniProt P22607); conditions: HEK293
T10 construct: purchased Promega (NanoBRET Target Engagement K192 Kinase Selectivity System)
Protocol: as §1, §2, §3, §4

[11] = target: T11, MAP3K9 (Homo sapiens, UniProt P80192); conditions: HEK293
T11 construct: purchased Promega (NanoBRET Target Engagement K192 Kinase Selectivity System)
Protocol: as §1, §2, §3, §4

[12] = target: T12, CLK2 (Homo sapiens, UniProt P49760)
T12 construct: expressed in transfected cells; host or cells: HEK293
Protocol: as §1, §2, §3, §4

[13] = target: T13, PHKG2 (Homo sapiens, UniProt P15735); conditions: HEK293
T13 construct: purchased Promega (NanoBRET Target Engagement K192 Kinase Selectivity System)
Protocol: as §1, §2, §3, §4

[14] = target: T14, JAK3 (Homo sapiens, UniProt P52333); conditions: HEK293
T14 construct: purchased Promega (NanoBRET Target Engagement K192 Kinase Selectivity System)
Protocol: as §1, §2, §3, §4

[15] = target: T15, STK16 (Homo sapiens, UniProt O75716); conditions: HEK293
T15 construct: purchased Promega (NanoBRET Target Engagement K192 Kinase Selectivity System)
Protocol: as §1, §2, §3, §4

[16] = target: T16, CDKL2 (Homo sapiens, UniProt Q92772); conditions: HEK293
T16 construct: purchased Promega (NanoBRET Target Engagement K192 Kinase Selectivity System)
Protocol: as §1, §2, §3, §4

[17] = target: T17, TIE1 (Homo sapiens, UniProt P35590); conditions: HEK293
T17 construct: purchased Promega (NanoBRET Target Engagement K192 Kinase Selectivity System)
Protocol: as §1, §2, §3, §4

[18] = target: T18, RIPK2 (Homo sapiens, UniProt O43353); conditions: HEK293
T18 construct: purchased Promega (NanoBRET Target Engagement K192 Kinase Selectivity System)
Protocol: as §1, §2, §3, §4

[19] = target: T19, MAST4 (Homo sapiens, UniProt O15021); conditions: HEK293
T19 construct: purchased Promega (NanoBRET Target Engagement K192 Kinase Selectivity System)
Protocol: as §1, §2, §3, §4

[20] = target: T20, CSNK2A1 (Homo sapiens, UniProt P68400)
T20 construct: expressed in transfected cells; host or cells: HEK293
Protocol: as §1, §2, §3, §4

[21] = target: T21, BTK (Homo sapiens, UniProt Q06187); conditions: HEK293
T21 construct: purchased Promega (NanoBRET Target Engagement K192 Kinase Selectivity System)
Protocol: as §1, §2, §3, §4

[22] = target: T22, AURKB (Homo sapiens, UniProt Q96GD4); conditions: HEK293
T22 construct: purchased Promega (NanoBRET Target Engagement K192 Kinase Selectivity System)
Protocol: as §1, §2, §3, §4

[23] = target: T23, MARK4 (Homo sapiens, UniProt Q96L34); conditions: HEK293
T23 construct: purchased Promega (NanoBRET Target Engagement K192 Kinase Selectivity System)
Protocol: as §1, §2, §3, §4

[24] = target: T24, TNK1 (Homo sapiens, UniProt Q13470); conditions: HEK293
T24 construct: purchased Promega (NanoBRET Target Engagement K192 Kinase Selectivity System)
Protocol: as §1, §2, §3, §4

[25] = target: T25, MERTK (Homo sapiens, UniProt Q12866); conditions: HEK293
T25 construct: purchased Promega (NanoBRET Target Engagement K192 Kinase Selectivity System)
Protocol: as §1, §2, §3, §4

[26] = target: T26, NEK3 (Homo sapiens, UniProt P51956); conditions: HEK293
T26 construct: host or cells: HEK293
Protocol: as §1, §2, §3, §4

[27] = target: T27, CDK2 + E1 (Homo sapiens, UniProt P24941); conditions: HEK293
T27 construct: purchased Promega (NanoBRET Target Engagement K192 Kinase Selectivity System)
Protocol: as §1, §2, §3, §4

T12 sequence (P49760 whole entry): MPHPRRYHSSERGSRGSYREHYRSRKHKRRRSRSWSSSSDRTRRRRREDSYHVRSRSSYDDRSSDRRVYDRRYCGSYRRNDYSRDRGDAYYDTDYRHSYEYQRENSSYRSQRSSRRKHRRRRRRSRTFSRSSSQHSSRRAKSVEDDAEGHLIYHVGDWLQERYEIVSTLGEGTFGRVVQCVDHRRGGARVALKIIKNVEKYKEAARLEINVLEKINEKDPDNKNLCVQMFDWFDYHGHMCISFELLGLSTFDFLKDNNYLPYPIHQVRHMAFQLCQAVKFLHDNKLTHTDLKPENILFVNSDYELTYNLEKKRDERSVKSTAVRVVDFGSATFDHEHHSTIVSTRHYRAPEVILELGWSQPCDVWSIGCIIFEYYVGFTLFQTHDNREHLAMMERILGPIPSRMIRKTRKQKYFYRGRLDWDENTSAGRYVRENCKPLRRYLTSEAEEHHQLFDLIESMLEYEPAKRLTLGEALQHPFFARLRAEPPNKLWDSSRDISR
T3 sequence (Q9HAZ1 whole entry): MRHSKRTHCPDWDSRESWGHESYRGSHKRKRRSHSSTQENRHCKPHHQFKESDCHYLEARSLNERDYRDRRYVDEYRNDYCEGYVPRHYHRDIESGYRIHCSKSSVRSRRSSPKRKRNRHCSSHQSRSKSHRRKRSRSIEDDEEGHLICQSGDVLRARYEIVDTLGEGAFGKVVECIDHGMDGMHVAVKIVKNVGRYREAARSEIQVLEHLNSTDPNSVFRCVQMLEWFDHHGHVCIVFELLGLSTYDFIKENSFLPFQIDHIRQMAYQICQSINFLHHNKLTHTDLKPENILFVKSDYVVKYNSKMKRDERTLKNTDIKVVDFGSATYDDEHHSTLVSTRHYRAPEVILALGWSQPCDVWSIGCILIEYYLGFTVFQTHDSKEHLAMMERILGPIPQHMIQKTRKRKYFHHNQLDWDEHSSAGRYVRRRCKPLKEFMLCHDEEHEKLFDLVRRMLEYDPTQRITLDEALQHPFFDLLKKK
T20 sequence (P68400 whole entry): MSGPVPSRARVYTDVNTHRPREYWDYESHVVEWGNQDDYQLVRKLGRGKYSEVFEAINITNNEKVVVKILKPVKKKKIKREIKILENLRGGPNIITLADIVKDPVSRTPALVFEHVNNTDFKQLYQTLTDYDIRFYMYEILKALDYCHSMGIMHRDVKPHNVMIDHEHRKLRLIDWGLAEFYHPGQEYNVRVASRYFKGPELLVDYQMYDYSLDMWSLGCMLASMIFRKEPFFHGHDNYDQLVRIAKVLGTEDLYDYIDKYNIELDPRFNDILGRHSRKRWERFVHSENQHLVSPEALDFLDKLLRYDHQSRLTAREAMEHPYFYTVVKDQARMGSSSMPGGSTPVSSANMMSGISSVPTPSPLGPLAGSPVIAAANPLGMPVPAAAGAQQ
T10 sequence (P22607 23-806): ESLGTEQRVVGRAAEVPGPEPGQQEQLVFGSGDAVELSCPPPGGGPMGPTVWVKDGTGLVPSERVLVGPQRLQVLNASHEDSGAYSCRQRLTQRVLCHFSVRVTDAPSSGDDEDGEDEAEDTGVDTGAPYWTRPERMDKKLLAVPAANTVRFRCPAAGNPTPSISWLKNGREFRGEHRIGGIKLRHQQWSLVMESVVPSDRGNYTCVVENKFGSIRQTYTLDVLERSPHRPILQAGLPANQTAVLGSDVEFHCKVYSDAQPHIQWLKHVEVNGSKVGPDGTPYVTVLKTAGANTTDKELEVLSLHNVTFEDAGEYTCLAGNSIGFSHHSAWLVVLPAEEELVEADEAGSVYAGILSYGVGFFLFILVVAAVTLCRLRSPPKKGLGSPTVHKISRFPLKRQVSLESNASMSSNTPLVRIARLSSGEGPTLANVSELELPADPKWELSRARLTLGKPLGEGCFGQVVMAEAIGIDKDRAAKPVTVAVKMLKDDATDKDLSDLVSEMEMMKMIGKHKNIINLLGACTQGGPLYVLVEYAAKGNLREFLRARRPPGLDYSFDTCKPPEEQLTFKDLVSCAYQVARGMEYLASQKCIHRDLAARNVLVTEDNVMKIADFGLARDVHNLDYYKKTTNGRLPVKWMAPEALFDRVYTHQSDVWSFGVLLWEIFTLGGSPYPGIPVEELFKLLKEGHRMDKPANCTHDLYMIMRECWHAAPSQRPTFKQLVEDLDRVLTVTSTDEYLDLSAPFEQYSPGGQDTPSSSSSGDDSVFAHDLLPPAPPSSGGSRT
T15 sequence (O75716 whole entry): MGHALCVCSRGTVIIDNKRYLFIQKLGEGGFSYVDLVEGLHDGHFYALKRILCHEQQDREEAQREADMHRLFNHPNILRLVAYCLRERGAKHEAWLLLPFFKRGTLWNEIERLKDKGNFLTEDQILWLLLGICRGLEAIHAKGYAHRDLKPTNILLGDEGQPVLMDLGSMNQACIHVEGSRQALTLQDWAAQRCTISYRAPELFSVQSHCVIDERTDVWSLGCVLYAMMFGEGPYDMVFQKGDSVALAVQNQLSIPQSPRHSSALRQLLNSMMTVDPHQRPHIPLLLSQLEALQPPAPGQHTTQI
T1 sequence (Q15375 28-998): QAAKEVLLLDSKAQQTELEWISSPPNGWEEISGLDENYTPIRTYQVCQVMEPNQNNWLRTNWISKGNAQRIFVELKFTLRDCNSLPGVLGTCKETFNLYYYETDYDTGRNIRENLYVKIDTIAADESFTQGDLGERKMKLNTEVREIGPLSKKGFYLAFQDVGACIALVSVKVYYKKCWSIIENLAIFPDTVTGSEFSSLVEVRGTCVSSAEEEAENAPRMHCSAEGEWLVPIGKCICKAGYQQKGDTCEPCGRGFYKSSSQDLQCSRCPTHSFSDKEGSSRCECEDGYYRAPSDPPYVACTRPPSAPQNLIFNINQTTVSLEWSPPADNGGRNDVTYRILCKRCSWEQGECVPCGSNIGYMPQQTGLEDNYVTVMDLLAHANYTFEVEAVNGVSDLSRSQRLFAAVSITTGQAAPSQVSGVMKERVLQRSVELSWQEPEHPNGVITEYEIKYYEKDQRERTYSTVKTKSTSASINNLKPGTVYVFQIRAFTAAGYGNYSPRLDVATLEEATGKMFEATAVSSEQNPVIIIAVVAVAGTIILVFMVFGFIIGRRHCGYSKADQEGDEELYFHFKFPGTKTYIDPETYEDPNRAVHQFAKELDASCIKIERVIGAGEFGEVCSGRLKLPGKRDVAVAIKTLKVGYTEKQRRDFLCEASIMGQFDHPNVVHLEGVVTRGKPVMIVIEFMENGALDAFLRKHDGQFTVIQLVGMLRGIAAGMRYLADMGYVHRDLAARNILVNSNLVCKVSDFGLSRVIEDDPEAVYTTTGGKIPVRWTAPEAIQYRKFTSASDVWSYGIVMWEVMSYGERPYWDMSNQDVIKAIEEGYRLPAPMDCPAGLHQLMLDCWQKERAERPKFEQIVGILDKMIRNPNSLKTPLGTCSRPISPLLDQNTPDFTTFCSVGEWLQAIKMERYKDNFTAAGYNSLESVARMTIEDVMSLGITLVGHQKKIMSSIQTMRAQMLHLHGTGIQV
T9 sequence (P0C264 whole entry): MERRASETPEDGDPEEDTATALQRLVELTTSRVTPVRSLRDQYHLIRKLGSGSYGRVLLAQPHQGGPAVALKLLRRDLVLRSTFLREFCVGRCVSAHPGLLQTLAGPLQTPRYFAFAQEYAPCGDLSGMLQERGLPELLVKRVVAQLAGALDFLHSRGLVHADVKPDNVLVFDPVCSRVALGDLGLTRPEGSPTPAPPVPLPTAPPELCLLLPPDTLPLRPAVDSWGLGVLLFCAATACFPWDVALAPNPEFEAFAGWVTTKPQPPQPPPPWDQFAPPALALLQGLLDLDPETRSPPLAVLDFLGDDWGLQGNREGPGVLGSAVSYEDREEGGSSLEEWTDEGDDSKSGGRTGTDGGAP
T16 sequence (Q92772 whole entry): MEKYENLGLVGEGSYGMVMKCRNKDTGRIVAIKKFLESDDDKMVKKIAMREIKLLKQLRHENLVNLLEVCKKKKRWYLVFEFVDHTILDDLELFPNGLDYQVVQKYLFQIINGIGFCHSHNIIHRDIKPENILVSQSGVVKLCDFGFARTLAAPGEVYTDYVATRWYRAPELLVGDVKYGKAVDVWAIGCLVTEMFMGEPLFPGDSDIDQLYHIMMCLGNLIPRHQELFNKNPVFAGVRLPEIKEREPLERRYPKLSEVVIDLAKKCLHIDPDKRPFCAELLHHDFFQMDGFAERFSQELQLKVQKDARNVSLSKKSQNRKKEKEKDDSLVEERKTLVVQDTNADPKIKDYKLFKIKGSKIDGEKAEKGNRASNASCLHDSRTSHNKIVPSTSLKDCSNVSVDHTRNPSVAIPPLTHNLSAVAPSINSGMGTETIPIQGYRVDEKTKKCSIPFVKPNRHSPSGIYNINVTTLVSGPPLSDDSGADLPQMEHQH
T4 sequence (Q8IWQ3 whole entry): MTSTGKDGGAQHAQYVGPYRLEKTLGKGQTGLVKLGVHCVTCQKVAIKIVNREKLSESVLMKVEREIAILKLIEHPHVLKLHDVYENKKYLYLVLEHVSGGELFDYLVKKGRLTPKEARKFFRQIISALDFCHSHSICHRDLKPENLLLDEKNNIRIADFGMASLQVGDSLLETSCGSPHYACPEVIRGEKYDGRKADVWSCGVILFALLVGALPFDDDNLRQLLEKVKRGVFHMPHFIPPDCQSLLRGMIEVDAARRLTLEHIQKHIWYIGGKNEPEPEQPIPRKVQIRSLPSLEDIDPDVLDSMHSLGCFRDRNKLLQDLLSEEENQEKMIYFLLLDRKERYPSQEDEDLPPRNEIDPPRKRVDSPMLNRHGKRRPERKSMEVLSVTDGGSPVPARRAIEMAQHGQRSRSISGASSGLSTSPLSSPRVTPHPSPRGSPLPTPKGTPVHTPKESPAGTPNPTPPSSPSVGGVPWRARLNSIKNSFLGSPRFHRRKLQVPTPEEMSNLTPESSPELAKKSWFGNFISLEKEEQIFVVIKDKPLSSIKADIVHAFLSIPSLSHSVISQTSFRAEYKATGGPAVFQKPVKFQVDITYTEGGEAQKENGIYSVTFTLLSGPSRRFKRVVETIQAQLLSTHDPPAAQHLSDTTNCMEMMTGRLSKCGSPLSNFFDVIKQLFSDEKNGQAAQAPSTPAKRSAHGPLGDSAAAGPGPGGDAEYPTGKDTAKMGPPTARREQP

## CCC(=O)Nc1cc(Nc2cc(NC3CC3)n3ncc(C#N)c3n2)c(F)cc1N1CCC[C@H](NC)C1 [Compound 2, (S)-N-(5-((3-cyano-7-(cyclopropylamino)pyrazolo[1,5-a]pyrimidin-5-yl)amino)-4-fluoro-2-(3-(methylamino)piperidin-1-yl)phenyl)propionamide]
[1]
  receptor occupancy at 10 µM: -2.5%
[2]
  receptor occupancy at 10 µM: 25.5%
[3]; CLK4, HEK293
  % occupancy at 10 μM: 74%
[3]; HEK293, CLK4
  receptor occupancy at 10 µM: 73.8%
[4]
  receptor occupancy at 10 µM: 13.6%
[5]
  receptor occupancy at 10 µM: 7.4%
[6]
  receptor occupancy at 10 µM: 6.6%
[7]
  receptor occupancy at 10 µM: -7.4%
[8]
  receptor occupancy at 10 µM: 24.8%
[9]
  receptor occupancy at 10 µM: 15.9%
[10]
  receptor occupancy at 10 µM: -0.7%
[11]
  receptor occupancy at 10 µM: 4.3%
[12]; CLK2, HEK293
  % occupancy at 10 μM: 85%
[12]; HEK293, CLK2
  receptor occupancy at 10 µM: 84.8%
[13]
  receptor occupancy at 10 µM: 29.7%
[14]
  receptor occupancy at 10 µM: 4.6%
[15]
  receptor occupancy at 10 µM: 16.4%
[16]
  receptor occupancy at 10 µM: 13.6%
[17]
  receptor occupancy at 10 µM: 20.6%
[18]
  receptor occupancy at 10 µM: 9.3%
[19]
  receptor occupancy at 10 µM: 11.4%
[20]; CSNK2A1, HEK293
  % occupancy at 10 μM: 97%
[20]; HEK293, CSNK2A1
  receptor occupancy at 10 µM: 97.3%
[21]
  receptor occupancy at 10 µM: 3%
[22]
  receptor occupancy at 10 µM: 1.4%
[23]
  receptor occupancy at 10 µM: 7.4%
[24]
  receptor occupancy at 10 µM: 6.8%
[25]
  receptor occupancy at 10 µM: 4.2%
[26]
  receptor occupancy at 10 µM: -11.1%
[27]
  receptor occupancy at 10 µM: 15.9%
